The values below come from ChEMBL document CHEMBL4342418, “1,2,3-Triazole-containing hybrids as potential anticancer agents: Current developments, action mechanisms and structure-activity relationships” (Eur J Med Chem, 2019).

One test concerns HCT-116. The test is described as follows: Antiproliferative activity against human HCT116 cells assessed as reduction in cell viability after 48 hrs by MTT assay. The format is functional, cell-based. The conditions noted are these: HCT-116, 48 h.
Test [1] deals with A549. The test can be described thus: Antiproliferative activity against human A549 cells assessed as reduction in cell viability after 48 hrs by MTT assay. Type of test: functional, cell-based. The conditions noted are these: A549, 48 h.
Test [2] has as its system DU-145. The test is described as follows: Antiproliferative activity against human DU145 cells assessed as reduction in cell viability after 48 hrs by MTT assay. Type of test: functional, cell-based. The note with it: DU-145, 48 h. (Formazan colour is commonly taken as a measure of viable cells.)
Test [3] relates to MDA-MB-231. The test is described as follows: Antiproliferative activity against human MDA-MB-231 cells assessed as reduction in cell viability after 48 hrs by MTT assay. Type of test: functional, cell-based. The conditions noted are these: MDA-MB-231, 48 h.
Test [4] has as its system HEK293. The test is described as follows: Cytotoxicity against HEK293 cells assessed as reduction in cell viability after 48 hrs by MTT assay. The conditions noted are these: Homo sapiens, HEK293, 48 h. The format is cell-based.
Test [5] has as its system DU-145. The test is described as follows: Antiproliferative activity against human DU145 cells by SRB assay. Type of test: functional, cell-based. In general terms: Sulforhodamine B stains cellular protein and so reports cell mass.
Test [6] relates to HeLa. The test can be described thus: Antiproliferative activity against human HeLa cells by SRB assay. Type of test: functional, cell-based.
The test system of test [7] is MDA-MB-231. The test can be described thus: Antiproliferative activity against human MDA-MB-231 cells by SRB assay. The format is functional.
Test [8] relates to HepG2. The test can be described thus: Antiproliferative activity against human HepG2 cells by SRB assay. Type of test: functional, cell-based.
The subject of test [9] is HT-29. The test is described as follows: Antiproliferative activity against human HT-29 cells assessed as reduction in cell viability after 48 hrs by MTT assay. Type of test: functional, cell-based. The conditions noted are these: HT-29, 48 h.
The next test has as its system HBL-100. The test can be described thus: Antiproliferative activity against human HBL100 cells assessed as reduction in cell viability after 48 hrs by MTT assay. Type of test: functional, cell-based. The note with it: HBL-100, 48 h.
For test [10], the system named is HeLa. The test can be described thus: Antiproliferative activity against human HeLa cells assessed as reduction in cell viability after 72 hrs by MTT assay. The format is functional, cell-based.
Another test deals with Caco-2. The test is described as follows: Antiproliferative activity against human Caco2 cells assessed as reduction in cell viability after 72 hrs by MTT assay. Type of test: functional, cell-based. The note with it: Caco-2, 72 h.
The test system of a further test is K562. The test is described as follows: Antiproliferative activity against human K562 cells assessed as reduction in cell viability after 72 hrs by MTT assay. The conditions noted are these: K562, 72 h. The format is functional, cell-based.
A short description of test [11]: Cytotoxicity against dog MDCK1 cells assessed as reduction in cell viability after 72 hrs by MTT assay. Type of test: cell-based. The conditions noted are these: Canis lupus familiaris, MDCK1, 72 h.
In test [12] the test system is MCF7. The test can be described thus: Antiproliferative activity against human MCF7 cells assessed as reduction in cell viability after 72 hrs by MTT assay. Type of test: functional, cell-based. The note with it: MCF7, 72 h.
The subject of test [13] is HT-29. The test is described as follows: Antiproliferative activity against human HT-29 cells assessed as reduction in cell viability after 72 hrs by MTT assay. The format is functional, cell-based. The note with it: HT-29, 72 h.
Another test deals with MOLT-4. The test is described as follows: Antiproliferative activity against human MOLT4 cells assessed as reduction in cell viability after 72 hrs by MTT assay. The conditions noted are these: MOLT-4, 72 h. Type of test: functional, cell-based.
Test [14] concerns MCF7. The test can be described thus: cells. The conditions noted are these: Homo sapiens. The format is functional, cell-based.
Description: Antiproliferative activity against human MCF7 cells by MTT assay
Test [15] has as its system A549. The test can be described thus: cells. Type of test: functional, cell-based. The conditions noted are these: Homo sapiens.
Description: Antiproliferative activity against human A549 cells by MTT assay
The subject of the next test is MCF-10A. The test is described as follows: Cytotoxicity against human MCF10A cells by MTT assay. Type of test: cell-based.
In test [16] the test system is HT-29. The test is described as follows: Antiproliferative activity against human HT-29 cells by MTT assay. Type of test: functional, cell-based.
Test [17] has as its system DU-145. The test is described as follows: Antiproliferative activity against human DU145 cells by MTT assay. The format is functional, cell-based.
The next test relates to MV4-11. The test can be described thus: Antiproliferative activity against human MV4-11 cells by MTT assay. Type of test: functional, cell-based.
Test [18] deals with A549. The test can be described thus: Antiproliferative activity against human A549 cells assessed as reduction in cell viability after 72 hrs by MTT assay. Type of test: functional, cell-based. The note with it: A549, 72 h.
Test [19] relates to HepG2. The test is described as follows: Antiproliferative activity against human HepG2 cells assessed as reduction in cell viability after 72 hrs by MTT assay. Type of test: functional, cell-based. The note with it: HepG2, 72 h.
The subject of the next test is HL-60. The test can be described thus: Antiproliferative activity against human HL60 cells assessed as reduction in cell viability after 48 hrs by MTT assay. Type of test: functional, cell-based. The conditions noted are these: HL-60, 48 h.
For another test, the system named is SW480. The test is described as follows: Antiproliferative activity against human SW480 cells assessed as reduction in cell viability after 48 hrs by MTT assay. The format is functional, cell-based. The conditions noted are these: SW480, 48 h.
A short description of test [20]: Antiproliferative activity against human SMCC7721 cells assessed as reduction in cell viability after 48 hrs by MTT assay. Type of test: functional, cell-based.
Test [21] concerns MDA-MB-231. The test can be described thus: Antiproliferative activity against human MDA-MB-231 cells by MTT assay. The format is functional, cell-based.
Test [22] relates to HEK293. The test can be described thus: Cytotoxicity against HEK293 cells by MTT assay. Type of test: cell-based. The conditions noted are these: Homo sapiens.

Structures are written as SMILES.

Take `COC(=O)Nc1nc2cc(C(=O)c3cccs3)ccc2[nH]1` [NOCODAZOLE]: the 50% inhibitory concentration (IC50) lay within 1.38 to 1.65 µM with HCT-116; 1.38 to 3.1 µM in the test on A549 [1]; 1.38 to 3.1 µM with DU-145 [2]; 1.38 to 1.65 µM with MDA-MB-231 [3]; 2.2 to 3.1 µM with HEK293 [4]; 2.2 to 3.1 µM with HT-29 [9]. In addition, the concentration for 50% growth inhibition (GI50) in the test on DU-145 [5], with HeLa [6], in the test on MDA-MB-231 [7] and in the test with HepG2 [8] was 0.011 to 0.034 µM each time.
On to `COc1cc(-n2cc(CO[C@H]3CC[C@@]4(C)C(=CC[C@H]5[C@@H]6C[C@@H]7O[C@]8(CC[C@@H](C)CO8)[C@@H](C)[C@@H]7[C@@]6(C)CC[C@@H]54)C3)nn2)cc(OC)c1OC`, for which the IC50 with HCT-116, in the test on A549 [1], in the test with HT-29 [9] and with HBL-100 was 5.16 to 9.44 µM each time.
As for `COc1cccc(-c2cn(Cc3cc(=O)oc4cc(O)c(O)cc34)nn2)c1`, the IC50 in the test with HeLa [10] was in the range of 9.7 to 81.9 µM; with Caco-2, 9.7 to 81.9 µM; in the test with K562, 9.7 to 81.9 µM; in test [11], 36.7 to 46 µM.
Regarding `O=C1C=C(NCc2cn(Cc3ccc(C(F)(F)F)cc3)nn2)C(=O)c2ccccc21`, the concentration for half-maximal inhibition (IC50) in the test on MCF7 [12], in the test on HT-29 [13] and with MOLT-4 was 6.8 to 10.4 µM throughout.
For `C=CCC1CN2CCC1CC2[C@@H](c1ccnc2ccc(OC)cc12)n1cc(-c2ccc3ccccc3n2)nn1` (some centres not stated), the half-inhibitory concentration (IC50) in the test on MCF7 [14], with A549 [15], in the test with MCF-10A, in the test with HT-29 [16], in the test with DU-145 [17] and in the test on MV4-11 was 0.53 to 14.6 µM in each case.
For `COc1ccc(S(=O)(=O)Nc2cccnc2Nc2ccc(O)cc2)cc1` [ABT-751], the 50% inhibitory concentration (IC50) in the test on A549 [1], in the test on DU-145 [2], with HEK293 [4] and in the test on HT-29 [9] was 1.31 to 1.62 µM throughout.
Regarding `COc1cc(-c2ccc(Cn3cc(C(=O)c4c(-c5ccccc5)nc5ccccn45)nn3)cc2)cc(OC)c1OC`, the concentration for half-maximal inhibition (IC50) in the test on HCT-116 is 0.51 to 3.98 µM; with A549 [1], 0.51 to 3.98 µM; in the test with DU-145 [2], 0.51 to 3.98 µM; in the test on MDA-MB-231 [3] it was 0.51 to 3.98 µM; with HEK293 [4], 63.5 µM.
As to `COc1ccccc1-c1cn(Cc2cc(=O)oc3cc(O)c(O)cc23)nn1`, the IC50 lay within 9.7 to 81.9 µM in the test on HeLa [10], 9.7 to 81.9 µM in the test on Caco-2, 9.7 to 81.9 µM with K562 and 36.7 to 46 µM in test [11].
Regarding `COc1ccc(-c2cn(Cc3cc(=O)oc4cc(O)c(O)cc34)nn2)cc1`, the IC50 is 9.7 to 81.9 µM in the test on HeLa [10], 9.7 to 81.9 µM with Caco-2, 9.7 to 81.9 µM in the test with K562 and 36.7 to 46 µM in test [11].
Consider `COc1cc2c(Oc3ccc(NC(=O)C4(C(=O)Nc5ccc(F)cc5)CC4)cc3F)ccnc2cc1OCCCN1CCOCC1` [FORETINIB], for which the half-inhibitory concentration (IC50) in the test on MCF7 [12], in the test with A549 [18] and with HepG2 [19] was 2.4 to 4.7 µM in each case.
Regarding `COc1cc([C@@H]2c3cc4c(cc3[C@H](n3cc(COCC(COCc5cn([C@H]6c7cc8c(cc7[C@@H](c7cc(OC)c(O)c(OC)c7)[C@H]7C(=O)OC[C@@H]76)OCO8)nn5)O[C@@H]5O[C@H](COC(C)=O)[C@@H](OC(C)=O)[C@H](OC(C)=O)[C@H]5OC(C)=O)nn3)[C@H]3COC(=O)[C@H]23)OCO4)cc(OC)c1O` (some centres not stated), the IC50 (in the test with A549 [1]; in the test on HL-60; in the test with SW480; in test [20]) was 0.43 to 30.5 µM each time.
For the molecule `C[C@@H]1CC[C@@]2(OC1)O[C@H]1C[C@H]3[C@@H]4CC=C5C[C@@H](OCc6cn(-c7ccccc7C#N)nn6)CC[C@]5(C)[C@H]4CC[C@]3(C)[C@H]1[C@@H]2C`, the IC50 with HCT-116, with A549 [1], in the test with HT-29 [9] and in the test on HBL-100 was 5.16 to 9.44 µM in each case.
Consider `Cc1ccc(-n2nc(N)c(C(=O)NCCNC(=O)c3nn(-c4ccc(C)cc4)nc3N)n2)cc1`, for which the IC50 in the test with MDA-MB-231 [21] was 7 µM; in the test on HEK293 [22], more than 50 µM.

Usually IC50 stands for the concentration at which inhibition is half-maximal. The term GI50 denotes the concentration that inhibits growth by half. Low values mean more potent growth inhibition, high ones less potent growth inhibition.
